Source: patent US10508113B2, “Inhibitors of tyrosine kinase 2 mediated signaling” (AbbVie Inc., priority 2018, dated 2019)

Experiments:
Jak2 = molecular target: T1, Jak2 (Homo sapiens, UniProt O60674); assay: Jak2 (PSTATS UT7) alpha screen assay: inhibition of EPO induced phosphorylation of STAT5 in UT7 cells; format: cell-based; conditions: calculated from tabulated EC50 data (Jak2 / Tyk2)
T1 construct: Cell Type: UT7 cells engineered to express the erythropoietin (EPO) receptor; endogenous in cells; host or cells: UT7 cells engineered to express the EPO receptor
Method: 3. JAK2 (PSTATS UT7) ALPHA SCREEN ASSAY
Erythropoietin (EPO) is known to transduce its signal through EPO receptor via Jak2. Activity against Jak2 was therefore measured by determining inhibition of EPO induced phosphorylation of STATS in UT7 cells. […] Materials
Cell Type: UT7 cells engineered to express the erythropoietin (EPO) receptor; Culture Medium: Dulbecco's Modified Eagle Medium (DMEM) with 2 mM L-glutamine, 10 mM hydroxyethyl piperazineethanesulfonic acid (HEPES), 10% heat-inactivated fetal bovine serum (FBS) and Stock EPO (5000U in 250 uL, need 5U/mL, so add 250 μL to 1L of media); Assay Medium: 5% FBS ultra-low IgG and 1% Pen/Strep. Compounds were made-up in 100% dimethyl sulfoxide (DMSO).
Day One - Starve Cells: 4 Flasks for one 384 plate (spin down @1000 rpm for 10 minutes and add DMEM with no EPO).
(§1) Day Two—Compound Dilutions:
i. Manual 8-point 1:3 dilution curve: 5 mM top concentration dispensed in row A of a
Corning 96-well polypropylene plate, columns 2-12. DMSO dispensed in position A01 for low and high controls. Compounds were serially diluted 1:3 by adding 10 μL stock to 20 μL DMSO down the plate.
ii. Media dilution of compounds: Serially diluted compounds were diluted 1:50 in assay medium by adding 4 μL compound to 196 μL assay medium in a Corning 96-well polypropylene plate.
384 Alpha Screen Plate Set up: Transferred 2.5 μL/well of compound solution from last dilution plate. Replicates were vertical, so that one column of the 96-well dilution plate goes into one column on the 384-well plate twice. Plated 1×10^5 starved cells/well in 5μL. Washed cells in 10 mL Hank's balanced salt solution (HBSS) after spinning down. Counted live cells. Multiplied by dilution factor and 10,000 (constant) to get the concentration of viable cells. Multiplied by volume of cells to get the total number of live cells. Divided by 20,000,000 cells/mL to get the volume needed. Subtracted the original volume to get the volume to be added to get the final concentration of cells. Mixed in reservoir if needed, ensuring that all cell clumps are broken up (if not broken up, they were removed from the suspension). Cells were plated at 5 μL/well in gray Alpha Screen 384-well plate. Spinned the plate to bring the contents to the bottom of the wells at 400 rpm for 2 minutes. Top final compound concentration: 25 μM. Sealed with adhesive and tapped gently. Incubated cells at 37° C. for 30 minutes.
c. EPO Stimulation (p STATS)
Once cells were in incubator, immediately prepared working stock of EPO (1 nM final assay concentration). EPO stock=2860 nM of sterile filtered liquid in sodium citrate buffer (1 liter of ddH2O containing 5.9 g of sodium citrate, 5.8 g of sodium chloride and 0.06 g of citric acid). Diluted 1:22.72 by adding 4.44 stock EPO to 95.6 pi assay media, then dilute again […] depending on how much volume is needed for the assay plates. Used assay medium to bring to volume. Added 2.5 μL EPO to each well. Spinned plate at 400 rpm briefly; tap the plate gently before covering with an adhesive seal. Cells were incubated at 37° C. for 20 minutes.
Added 2.5 μL of 5X Lysis buffer to each well. Spinned plate at 400 rpm briefly. Incubated at room temperature (on orbital shaker) for 10 minutes.
e. Protein (A) Acceptor Beads Preparation: (Light sensitive)
(§2) Phosphorylated Signal Transducer and Activator of Transcription 5 (pSTAT5) was quantified using the PerkinElmer SureFire pSTATS (Tyrosine 694/699) Assay. Calculated total volume needed (wells×15 μL×30%). Divided total volume by 5 to get volume of activation buffer. Subtracted volume of activation buffer from total volume and divide by 40 to get volume of acceptor beads (add last). Total volume - acceptor bead volume - activation buffer to get volume of reaction buffer. Added 15 μL to each well and covered with foil. Shaked on orbital shaker for 2 hours at 500 rpm.
(§3) f. Streptavidin Donor Beads Preparation:
Calculated total volume needed (wells×6μL×30%). […]

Jak1 = molecular target: T2, Jak1 (Homo sapiens, UniProt P23458); assay: Jak1 (PSTAT3 TF1) alpha screen assay: inhibition of IL-6 induced phosphorylation of STAT3 in TF1 cells; format: cell-based; conditions: calculated from tabulated EC50 data (Jak1 / Tyk2)
T2 construct: endogenous in cells; host or cells: TF1 cells
Method: 2. JAK1 (PSTAT3 TF1) ALPHA SCREEN ASSAY
IL-6 is known to transduce its signal through IL-6 receptor via Jak1. Activity against Jak1 was therefore measured by determining inhibition of IL-6 induced phosphorylation of STAT3 in TF1 cells.
Cell Type: TF1 Cells; Culture Medium: RPMI 1640 Medium, 2mM L-glutamine, 10% heat- inactivated fetal bovine serum (FBS), 10 mM hydroxyethyl piperazineethanesulfonic acid (HEPES), and 2 ng/mL recombinant human interleukin-6(IL-6); Assay Medium: Dulbecco's Modified Eagle Medium (DMEM) medium with 2 mM L-glutamine, 10 mM HEPES, 100 U/mL penicillin/streptomycin, 1.5 g/L sodium bicarbonate, 4.5 g/L glucose, 1 mM sodium pyruvate, 10% heat-inactivated FBS; Compound Preparation: Compounds are dissolved in 100% dimethyl sulfoxide (DMSO).
Day One—Starve Cells: 4 Flasks for one 384 plate (spin down @1000 rpm for 10 minutes and add RPMI 1640 Medium, 2 mM L-glutamine, 10% FBS, 10 mM HEPES with no IL-6 -incubate overnight).
as §1
i. Manual 8-point 1:5 dilution curve: 5 mM top concentration dispensed in row A of a
Corning 96-well polypropylene plate, columns 2-12. DMSO dispensed in position A01 for low and high controls. Compounds were serially diluted 1:5 by adding 10 μL stock to […] DMSO down the plate.
ii. Media dilution of compounds: Serially diluted compounds were further diluted 1:12.5 in assay medium by adding 4 μL compound to 46 μL assay medium in a Corning 96-well polypropylene plate.
384 Alpha Screen Plate Set up: Transfer 2.5 μL/well of compound solution from assay media dilution plate. Replicates were vertical, one column of the 96-well dilution plate goes into one column on the 384-well plate twice. Plated 1×10^5 starved cells/well in 5 μL. Washed cells in 10 mL DMEM medium after spinning down. Brought cell pellet up in assay media. Counted live cells. Multiplied by dilution factor and 10,000 (constant) to get the concentration of viable cells. Multiplied by volume of assay media used to bring up cells to get the total number of live cells. Divided by 20,000,000 cells/mL to get the volume needed. Cells were plated at 5 μL/well in gray Alpha Screen 384-well plate. Spinned the plate to bring the contents to the bottom of the wells at 300 rpm for 60 seconds. Top final compound concentration: 25 μM. Sealed with adhesive and tapped gently. Incubated plate at 37° C. for 30 minutes. c. IL-6 Stimulation (pSTAT3)
Once cells were in incubator, immediately prepared working stock of IL-6 (100 ng/mL final concentration). IL-6 stock=10 μg/mL of IL-6 in phosphate buffered saline with 0.1% bovine serum albumin. Diluted 1:25 by adding 60 μL stock IL-6 to 1440 μL assay media. Added 2.5 μL IL-6 to each well. Spinned plate at 300 rpm briefly; tapped the plate gently before covering with an adhesive seal. Incubated plate at 37° C. for 30 minutes.
Added 2.5 μL of 5X Lysis buffer to each well. Incubated at room temperature on orbital shaker for 10 minutes.
e. Protein (A) Acceptor Beads Preparation:
as §2, with “3 (pSTAT3)” for “5 (pSTAT5)”, “pSTAT3” for “pSTATS”, “705)” for “694/699)”, “(wells×[…]×25%).” for “(wells×15 μL×30%).”, “volume−acceptor” for “volume - acceptor”, “volume−activation buffer=volume” for “volume - activation buffer to get volume”
as §3
Calculated total volume needed (wells×[…]×25%). Divided total volume by 20 to get volume of donor beads (add last). Subtracted volume of donor beads from total volume to get volume of dilution buffer. Added 6 μL to each well and covered with foil. Shaked on orbital shaker overnight at 500 rpm.
Read plate on a Perkin Elmer Envision. […]

T1 sequence (O60674 whole entry): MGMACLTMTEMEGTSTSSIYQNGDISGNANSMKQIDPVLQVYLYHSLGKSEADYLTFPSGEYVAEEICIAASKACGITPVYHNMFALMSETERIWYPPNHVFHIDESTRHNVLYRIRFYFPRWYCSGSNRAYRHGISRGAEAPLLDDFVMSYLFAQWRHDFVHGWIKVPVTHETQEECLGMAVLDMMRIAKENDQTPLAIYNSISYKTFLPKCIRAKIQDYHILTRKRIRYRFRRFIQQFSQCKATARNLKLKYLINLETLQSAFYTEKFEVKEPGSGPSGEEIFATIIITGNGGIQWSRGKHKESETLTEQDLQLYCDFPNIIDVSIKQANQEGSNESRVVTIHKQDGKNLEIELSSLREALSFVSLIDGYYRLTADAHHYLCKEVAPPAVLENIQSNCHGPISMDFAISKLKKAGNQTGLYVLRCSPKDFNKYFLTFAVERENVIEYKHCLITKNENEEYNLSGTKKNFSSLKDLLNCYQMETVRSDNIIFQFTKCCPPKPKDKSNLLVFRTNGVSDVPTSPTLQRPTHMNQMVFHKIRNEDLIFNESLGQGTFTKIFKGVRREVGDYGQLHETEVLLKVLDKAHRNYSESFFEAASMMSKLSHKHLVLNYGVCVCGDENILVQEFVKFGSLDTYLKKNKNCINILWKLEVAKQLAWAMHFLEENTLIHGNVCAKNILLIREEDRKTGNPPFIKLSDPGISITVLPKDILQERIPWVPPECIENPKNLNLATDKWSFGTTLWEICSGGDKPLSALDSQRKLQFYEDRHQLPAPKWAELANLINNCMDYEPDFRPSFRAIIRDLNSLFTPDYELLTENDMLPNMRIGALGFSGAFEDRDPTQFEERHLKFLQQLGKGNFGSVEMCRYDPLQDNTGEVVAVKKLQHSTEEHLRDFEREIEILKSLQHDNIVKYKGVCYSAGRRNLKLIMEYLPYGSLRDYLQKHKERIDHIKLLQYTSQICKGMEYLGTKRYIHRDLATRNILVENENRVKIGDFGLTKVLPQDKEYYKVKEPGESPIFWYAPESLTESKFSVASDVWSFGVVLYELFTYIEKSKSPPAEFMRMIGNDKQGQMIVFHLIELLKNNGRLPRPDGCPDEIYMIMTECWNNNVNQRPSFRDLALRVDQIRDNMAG
T2 sequence (P23458 whole entry): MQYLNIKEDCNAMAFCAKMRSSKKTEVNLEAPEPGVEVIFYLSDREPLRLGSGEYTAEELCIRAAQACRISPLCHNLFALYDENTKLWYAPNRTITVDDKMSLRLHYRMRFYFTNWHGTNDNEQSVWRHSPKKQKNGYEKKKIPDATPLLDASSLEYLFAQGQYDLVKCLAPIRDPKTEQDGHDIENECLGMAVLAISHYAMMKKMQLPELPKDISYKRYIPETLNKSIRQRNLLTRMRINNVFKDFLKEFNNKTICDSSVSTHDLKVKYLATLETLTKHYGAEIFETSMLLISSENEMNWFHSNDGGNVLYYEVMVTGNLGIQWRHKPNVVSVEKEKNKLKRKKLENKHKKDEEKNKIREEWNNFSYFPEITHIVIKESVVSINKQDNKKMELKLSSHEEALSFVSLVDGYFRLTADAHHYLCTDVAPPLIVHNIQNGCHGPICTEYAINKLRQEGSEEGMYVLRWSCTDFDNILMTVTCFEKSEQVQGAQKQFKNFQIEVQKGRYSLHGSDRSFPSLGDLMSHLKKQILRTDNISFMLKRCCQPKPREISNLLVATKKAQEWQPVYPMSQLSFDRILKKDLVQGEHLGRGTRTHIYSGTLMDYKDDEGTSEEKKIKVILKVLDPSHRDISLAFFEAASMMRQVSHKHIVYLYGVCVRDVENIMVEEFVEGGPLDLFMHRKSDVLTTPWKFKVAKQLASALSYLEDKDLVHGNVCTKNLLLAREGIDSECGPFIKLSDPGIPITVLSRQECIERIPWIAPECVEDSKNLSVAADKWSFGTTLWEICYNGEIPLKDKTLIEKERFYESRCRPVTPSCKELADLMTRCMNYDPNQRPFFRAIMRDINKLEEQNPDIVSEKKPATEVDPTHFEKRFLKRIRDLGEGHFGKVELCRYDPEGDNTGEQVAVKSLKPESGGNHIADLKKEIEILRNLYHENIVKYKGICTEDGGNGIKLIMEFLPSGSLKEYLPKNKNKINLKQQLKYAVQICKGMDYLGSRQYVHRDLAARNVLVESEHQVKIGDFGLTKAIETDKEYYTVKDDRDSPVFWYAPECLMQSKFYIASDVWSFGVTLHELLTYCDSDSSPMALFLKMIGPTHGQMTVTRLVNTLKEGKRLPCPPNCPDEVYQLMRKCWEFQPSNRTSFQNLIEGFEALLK

Row | Structure (SMILES) | Tyk2 selectivity over Jak2 (Jak2) | Tyk2 selectivity over Jak1 (Jak1)
1 | CO[C@@]1(c2cc(C)cc(-c3cn(C)c4cnc(NC(N)=O)cc34)n2)CCOC1 [Example 1b.2, (R)-1-(3-(6-(3-methoxytetrahydrofuran-3-yl)-4-methylpyridin-2-yl)-1-methyl-1H-pyrrolo[2,3-c]pyridin-5-yl)urea] | >1000-fold | 840-fold
2 | CO[C@@]1(c2cc(OCCO)cc(-c3cn(C)c4cnc(NC(C)=O)cc34)n2)CCOC1 [Example 10, (R)-N-(3-(4-(2-Hydroxyethoxy)-6-(3-methoxytetrahydrofuran-3-yl)pyridin-2-yl)-1-methyl-1H-pyrrolo[2,3-c]pyridin-5)-ypacetamide] | >275-fold | 297-fold
3 | Cn1cc(-c2cncc([C@@]3(C)CCOC3)n2)c2cc(NC(N)=O)ncc21 [Example 1b.6, (R)-1-(1-methyl-3-(6-(3-methyltetrahydrofuran-3-yl)pyrazin-2-yl)-1H-pyrrolo[2,3-c]pyridin-5-yl)urea] | >128-fold | 22-fold
4 | CO[C@@]1(c2cc(OCC3COC3)cc(-c3cn(C)c4cnc(NC(C)=O)cc34)n2)CCOC1 [Example 6, (R)-N-(3-(6-(3-Methoxytetrahydrofuran-3-yl)-4-(oxetan-3-ylmethoxy)pyridin-2-yl)-1-methyl-1H-pyrrolo[2,3-c]pyridin-5-yl)acetamide] | >500-fold | 420-fold
5 | COCc1cc(-c2cn(C)c3cnc(NC(N)=O)cc23)nc([C@]2(OC)CCOC2)c1 [Example 3, (R)-1-(3-(4-(Methoxymethyl)-6-(3-methoxytetrahydrofuran-3-yl)pyridin-2-yl)-1-methyl-1H-pyrrolo[2,3-c]pyridin-5-yl)urea] | >714-fold | 514-fold
6 | CO[C@@]1(c2cccc(-c3cn([C@@H]4CC4(F)F)c4cnc(NC(N)=O)cc34)n2)CCOC1 [Example 1.2, 1-(1-((R)-2,2-difluorocyclopropyl)-3-(6-((R)-3-methoxytetrahydrofuran-3-yl)pyridin-2-yl)-1H-pyrrolo[2,3-c]pyridin-5-yl)urea] | >556-fold | 300-fold

The next lines start with the values.

Row | Tyk2 selectivity over Jak2 (Jak2) | Tyk2 selectivity over Jak1 (Jak1) | Structure (SMILES)
7 | >171-fold | 486-fold | CO[C@@]1(c2cc(OC[C@H](C)O)cc(-c3cn(C)c4cnc(NC(C)=O)cc34)n2)CCOC1 [Example 14.5, N-(3-(4-((S)-2-hydroxypropoxy)-6-((R)-3-methoxytetrahydrofuran-3-yl)pyridin-2-yl)-1-methyl-1H-pyrrolo[2,3-c]pyridin-5-yl)acetamide]
8 | >192-fold | 85-fold | COc1cc(-c2cn(C)c3cnc(NC(C)=O)cc23)nc([C@]2(CO)CCOC2)c1 [Example 22.6, (S)-N-(3-(6-(3-(hydroxymethyl)tetrahydrofuran-3-yl)-4-methoxypyridin-2-yl)-1-methyl-1H-pyrrolo[2,3-c]pyridin-5-yl)acetamide]
9 | >287-fold | 563-fold | CO[C@@]1(c2cc(OC[C@@H](C)O)cc(-c3cn(C)c4cnc(NC(C)=O)cc34)n2)CCOC1 [Example 14.6, N-(3-(4-((R)-2-hydroxypropoxy)-6-((R)-3-methoxytetrahydrofuran-3-yl)pyridin-2-yl)-1-methyl-1H-pyrrolo[2,3-c]pyridin-5-yl)acetamide]
10 | >595-fold | 405-fold | CO[C@@]1(c2cc(C(F)F)cc(-c3cn(C)c4cnc(NC(C)=O)cc34)n2)CCOC1 [Example 2.8, (R)-N-(3-(4-(difluoromethyl)-6-(3-methoxytetrahydrofuran-3-yl)pyridin-2-yl)-1-methyl-1H-pyrrolo[2,3-c]pyridin-5-yl)acetamide]
11 | >641-fold | 385-fold | COc1cc(-c2cn(C)c3cnc(NC(N)=O)cc23)nc([C@]2(OC)CCOC2)c1 [Example 12.6, (R)-1-(3-(4-methoxy-6-(3-methoxytetrahydrofuran-3-yl)pyridin-2-yl)-1-methyl-1H-pyrrolo[2,3-c]pyridin-5-yl)urea]
12 | >266-fold | 138-fold | CO[C@@]1(c2cc(C#N)cc(-c3cn(C)c4cnc(NC(N)=O)cc34)n2)CCOC1 [Example 12.3, (R)-1-(3-(4-cyano-6-(3-methoxytetrahydrofuran-3-yl)pyridin-2-yl)-1-methyl-1H-pyrrolo[2,3-c]pyridin-5-yl)urea]
